Species on record: Rattus norvegicus
Assay: DrugMatrix - Regimen: Daily Repeat
Assay type: toxicity, organism-based, Sprague-Dawley
Set-up: regimen Daily Repeat, gender Male, age 6-8 weeks
Details: in vivo, iv, vehicle 100 % SALINE; for ABSOLUTE BASOPHIL / ABSOLUTE EOSINOPHIL / ABSOLUTE LYMPHOCYTE / ABSOLUTE MONOCYTE / ABSOLUTE SEGMENTED NEUTROPHIL / BASOPHIL / EOSINOPHIL / ERYTHROCYTE COUNT / HEMATOCRIT / HEMOGLOBIN / LEUKOCYTE COUNT / LYMPHOCYTE / MEAN CORPUSCULAR HEMOGLOBIN / MEAN CORPUSCULAR HEMOGLOBIN CONCENTRATION / MEAN CORPUSCULAR VOLUME / MONOCYTE / NEUTROPHIL / NUCLEATED RED BLOOD CELLS / PLATELET COUNT: tissue Blood; for ALANINE AMINOTRANSFERASE / ALBUMIN / ALKALINE PHOSPHATASE / ASPARTATE AMINOTRANSFERASE / BLOOD UREA NITROGEN / CARBON DIOXIDE / CHLORIDE / CHOLESTEROL / CREATINE PHOSPHOKINASE / CREATININE / GLUCOSE / LACTATE DEHYDROGENASE / LIPASE / PHOSPHORUS / POTASSIUM / SODIUM / TOTAL BILIRUBIN / TOTAL PROTEIN / URIC ACID: tissue Plasma
[1] = 3 mg/kg, 120 h, dose level Low, time 5 day
[2] = 54 mg/kg, 72 h, dose level High, time 3 day
[3] = 54 mg/kg, 120 h, dose level High, time 5 day

With `O=c1[nH]c(=O)n([C@H]2C[C@H](O)[C@@H](CO)O2)cc1F` [FLOXURIDINE] the “ABSOLUTE BASOPHIL” value [1] was 0 CELLS/uL, the “ABSOLUTE EOSINOPHIL” value [1] was 0 CELLS/uL and the “ABSOLUTE LYMPHOCYTE” value [1] was 11533 CELLS/uL. The “ABSOLUTE MONOCYTE” value [1] was 174 CELLS/uL, the “ABSOLUTE SEGMENTED NEUTROPHIL” value [1] was 693 CELLS/uL and the BASOPHIL [1] was 0%. The EOSINOPHIL [1] was 0%, the “ERYTHROCYTE COUNT” value [1] was 5.61 x10E6/uL and the HEMATOCRIT [1] was 34.57%. The HEMOGLOBIN [1] was 13.83 G/DL, the “LEUKOCYTE COUNT” value [1] was 12.4 x10E3/uL and the LYMPHOCYTE [1] was 93%. For the same compound, the “MEAN CORPUSCULAR HEMOGLOBIN” value [1] was 24.7 pg, the “MEAN CORPUSCULAR HEMOGLOBIN CONCENTRATION” value [1] was 40.03 G/DL and the “MEAN CORPUSCULAR VOLUME” value [1] was 61.73 fL. For the same compound, the MONOCYTE [1] was 1.33%, the NEUTROPHIL [1] was 5.67% and the “NUCLEATED RED BLOOD CELLS” value [1] was 0 /100WBC. For the same compound, the “PLATELET COUNT” value [1] was 883.33 x10E3/uL, the “ALANINE AMINOTRANSFERASE” value [1] was 53.33 u/L and the ALBUMIN [1] was 4.33 G/DL. The “ALKALINE PHOSPHATASE” value [1] was 392.33 u/L, the “ASPARTATE AMINOTRANSFERASE” value [1] was 95.67 u/L and the “BLOOD UREA NITROGEN” value [1] was 18.67 mg/dL. The “CARBON DIOXIDE” value [1] was 26.33 mmol/L, the CHLORIDE [1] was 102 MEQ/L and the CHOLESTEROL [1] was 64.67 mg/dL. For the same compound, the “CREATINE PHOSPHOKINASE” value [1] was 328 u/L, the CREATININE [1] was 0.28 mg/dL and the GLUCOSE [1] was 167.33 mg/dL. For the same compound, the “LACTATE DEHYDROGENASE” value [1] was 433.67 u/L, the LIPASE [1] was 10.33 u/L and the PHOSPHORUS [1] was 11.63 mg/dL. For the same compound, the POTASSIUM [1] was 6.75 MEQ/L, the SODIUM [1] was 142.7 MEQ/L and the “TOTAL BILIRUBIN” value [1] was 0.23 mg/dL. The “TOTAL PROTEIN” value [1] was 5.93 G/DL, the “URIC ACID” value [1] was 1.83 mg/dL and the “ABSOLUTE BASOPHIL” value [2] was 0 CELLS/uL. For the same compound, the “ABSOLUTE EOSINOPHIL” value [2] was 0 CELLS/uL, the “ABSOLUTE LYMPHOCYTE” value [2] was 10754.33 CELLS/uL and the “ABSOLUTE MONOCYTE” value [2] was 75.67 CELLS/uL. For the same compound, the “ABSOLUTE SEGMENTED NEUTROPHIL” value [2] was 703.33 CELLS/uL, the BASOPHIL [2] was 0% and the EOSINOPHIL [2] was 0%. The “ERYTHROCYTE COUNT” value [2] was 5.48 x10E6/uL, the HEMATOCRIT [2] was 33.43% and the HEMOGLOBIN [2] was 13.3 G/DL. For the same compound, the “LEUKOCYTE COUNT” value [2] was 11.53 x10E3/uL, the LYMPHOCYTE [2] was 93.33% and the “MEAN CORPUSCULAR HEMOGLOBIN” value [2] was 24.33 pg. The “MEAN CORPUSCULAR HEMOGLOBIN CONCENTRATION” value [2] was 39.83 G/DL, the “MEAN CORPUSCULAR VOLUME” value [2] was 61.17 fL and the MONOCYTE [2] was 0.67%. For the same compound, the NEUTROPHIL [2] was 6%, the “NUCLEATED RED BLOOD CELLS” value [2] was 0 /100WBC and the “PLATELET COUNT” value [2] was 1073.67 x10E3/uL. The “ALANINE AMINOTRANSFERASE” value [2] was 48.33 u/L, the ALBUMIN [2] was 4.13 G/DL and the “ALKALINE PHOSPHATASE” value [2] was 268 u/L. The “ASPARTATE AMINOTRANSFERASE” value [2] was 81.67 u/L, the “BLOOD UREA NITROGEN” value [2] was 19 mg/dL and the “CARBON DIOXIDE” value [2] was 28.67 mmol/L. The CHLORIDE [2] was 103.33 MEQ/L, the CHOLESTEROL [2] was 68.33 mg/dL and the “CREATINE PHOSPHOKINASE” value [2] was 307.67 u/L. The CREATININE [2] was 0.18 mg/dL, the GLUCOSE [2] was 150.67 mg/dL and the “LACTATE DEHYDROGENASE” value [2] was 152.33 u/L. For the same compound, the LIPASE [2] was 10.33 u/L, the PHOSPHORUS [2] was 9.83 mg/dL and the POTASSIUM [2] was 5.66 MEQ/L. The SODIUM [2] was 141.27 MEQ/L, the “TOTAL BILIRUBIN” value [2] was 0.2 mg/dL and the “TOTAL PROTEIN” value [2] was 5.67 G/DL. For the same compound, the “URIC ACID” value [2] was 1.2 mg/dL, the “ABSOLUTE BASOPHIL” value [3] was 0 CELLS/uL and the “ABSOLUTE EOSINOPHIL” value [3] was 0 CELLS/uL. The “ABSOLUTE LYMPHOCYTE” value [3] was 10553 CELLS/uL, the “ABSOLUTE MONOCYTE” value [3] was 101.33 CELLS/uL and the “ABSOLUTE SEGMENTED NEUTROPHIL” value [3] was 445.67 CELLS/uL. For the same compound, the BASOPHIL [3] was 0%, the EOSINOPHIL [3] was 0% and the “ERYTHROCYTE COUNT” value [3] was 4.83 x10E6/uL. The HEMATOCRIT [3] was 31%, the HEMOGLOBIN [3] was 12.7 G/DL and the “LEUKOCYTE COUNT” value [3] was 11.1 x10E3/uL. The LYMPHOCYTE [3] was 95%, the “MEAN CORPUSCULAR HEMOGLOBIN” value [3] was 26.57 pg and the “MEAN CORPUSCULAR HEMOGLOBIN CONCENTRATION” value [3] was 41.07 G/DL. For the same compound, the “MEAN CORPUSCULAR VOLUME” value [3] was 64.57 fL, the MONOCYTE [3] was 1% and the NEUTROPHIL [3] was 4%. For the same compound, the “NUCLEATED RED BLOOD CELLS” value [3] was 0 /100WBC, the “PLATELET COUNT” value [3] was 1207.33 x10E3/uL and the “ALANINE AMINOTRANSFERASE” value [3] was 45 u/L. The ALBUMIN [3] was 4.17 G/DL, the “ALKALINE PHOSPHATASE” value [3] was 347 u/L and the “ASPARTATE AMINOTRANSFERASE” value [3] was 84 u/L. For the same compound, the “BLOOD UREA NITROGEN” value [3] was 17.67 mg/dL, the “CARBON DIOXIDE” value [3] was 26.67 mmol/L and the CHLORIDE [3] was 102.33 MEQ/L. The CHOLESTEROL [3] was 52.67 mg/dL, the “CREATINE PHOSPHOKINASE” value [3] was 429.33 u/L and the CREATININE [3] was 0.12 mg/dL. For the same compound, the GLUCOSE [3] was 154 mg/dL, the “LACTATE DEHYDROGENASE” value [3] was 306 u/L and the LIPASE [3] was 9.33 u/L. The PHOSPHORUS [3] was 9.83 mg/dL, the POTASSIUM [3] was 5.61 MEQ/L and the SODIUM [3] was 142.1 MEQ/L. For the same compound, the “TOTAL BILIRUBIN” value [3] was 0.17 mg/dL, the “TOTAL PROTEIN” value [3] was 5.53 G/DL and the “URIC ACID” value [3] was 1.5 mg/dL.
